Values quoted from earlier work, collected in patent publication US20220409569A1, “Cannabinoid Products with High Bioavailability” (The Chemist's Cabinet, LLC, priority 2019, published 2022).

Details: oral administration

Compound | bioavailability
C=C(C)[C@@H]1CCC(C)=C[C@H]1c1c(O)cc(CCCCC)cc1O [CBD, cannabidiol] | ~6%
CCCCCc1cc(O)c2c(c1)OC(C)(C)[C@@H]1CCC(C)=C[C@@H]21 [THC, tetrahydrocannabinol] | 4%-12%
